Tests used:
KB3-1 (oral) = experiment: MTT-microtiter plate tetrazolinium cytotoxicity assay, KB3-1; assay type: cell-based
KBV-1 (mdr-1) = experiment: MTT-microtiter plate tetrazolinium cytotoxicity assay, KBV-1; assay type: cell-based
KBH1.0 + V (H033342r.) = experiment: MTT-microtiter plate tetrazolinium cytotoxicity assay, KBH1.0 + V; assay type: cell-based; settings: continuous exposure 3-4 days
HELA (cervical) = experiment: MTT-microtiter plate tetrazolinium cytotoxicity assay, HELA; assay type: cell-based; settings: continuous exposure 3-4 days
HCT116 (colon) = experiment: MTT-microtiter plate tetrazolinium cytotoxicity assay, HCT116; assay type: cell-based
ZR-75-1 (breast) = experiment: MTT-microtiter plate tetrazolinium cytotoxicity assay, ZR-75-1; assay type: cell-based
human topoisomerase I = biological target: T1, human topoisomerase I (Homo sapiens, UniProt P11387); experiment: Test A. Topoisomerase I-mediated DNA cleavage assay; assay type: biochemical; settings: concentration relative to 2,3-dimethoxy-8,9-methylenedioxybenzo[i]phenanthridine (=1.0) producing same cleavage (approx. 10% DNA fragmentation); 30 min, 37° C.
T1 construct: unnamed fusion partner (recombinant fusion protein, T7 expression system); made in house; host or cells: E. coli
T1 sequence (P11387 1-765): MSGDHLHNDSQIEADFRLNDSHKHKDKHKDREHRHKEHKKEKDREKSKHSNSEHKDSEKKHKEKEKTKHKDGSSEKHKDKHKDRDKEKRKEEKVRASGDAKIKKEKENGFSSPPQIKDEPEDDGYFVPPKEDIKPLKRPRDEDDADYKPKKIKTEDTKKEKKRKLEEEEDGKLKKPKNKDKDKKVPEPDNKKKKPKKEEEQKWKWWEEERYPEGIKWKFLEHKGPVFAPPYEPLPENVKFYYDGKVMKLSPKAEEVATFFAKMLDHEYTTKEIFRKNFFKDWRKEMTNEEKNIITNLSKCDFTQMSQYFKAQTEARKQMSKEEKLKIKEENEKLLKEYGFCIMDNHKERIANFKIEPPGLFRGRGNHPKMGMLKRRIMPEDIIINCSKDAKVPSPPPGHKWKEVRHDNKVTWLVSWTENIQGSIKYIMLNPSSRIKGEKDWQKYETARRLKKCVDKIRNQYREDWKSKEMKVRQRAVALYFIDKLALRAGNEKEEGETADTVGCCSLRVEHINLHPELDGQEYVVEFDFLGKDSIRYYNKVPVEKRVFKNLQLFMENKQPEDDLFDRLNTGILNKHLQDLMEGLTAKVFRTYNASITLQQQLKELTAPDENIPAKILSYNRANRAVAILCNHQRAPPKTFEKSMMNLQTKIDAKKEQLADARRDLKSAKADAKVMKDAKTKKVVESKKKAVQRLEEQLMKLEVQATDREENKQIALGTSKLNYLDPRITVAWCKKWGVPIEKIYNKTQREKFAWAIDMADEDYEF
Source text: Test A. Topoisomerase I-mediated DNA Cleavage Assay
Human topoisomerase I was expressed in E. Coli and isolated as a recombinant fusion protein using a T7 expression system as described previously (Makhey, D. et al., Bioorg. Med. Chem., 2000, 8, 1-11). DNA topoisomerase I was purified from calf thymus gland as reported previously (Maniatis, T., et al., J. Molecular Cloning, a Laboratory Manual, Cold Spring Harbor Laboratory, Cold Spring Harbor, N.Y., 149-185). Plasmid YepG was also purified by the alkali lysis method followed by phenol deproteination and CsCl/ethidium isopycnic centrifugation method as described (Maniatis, T.; Fritsch, E. F.; Sambrook, J. Molecular Cloning, a Laboratory Manual; Cold Spring Harbor Laboratory: Cold Spring Harbor, N.Y. 1982; pp 149-185).^102 The end-labeling of the plasmid was accomplished by digestion with a restriction enzyme followed by end-filling with Klenow polymerase as previously described (Liu, L. F.; Rowe, T. C.; Yang, L.; Tewey, K. M.; Chen, G. L. “Cleavage of DNA by mammalian topoisomerase II,” J Biol. Chem. 1983, 258, 15365).^103 Cleavage assays were performed as previously reported (B. Gatto et al. Cancer Res., 1996, 56, 2795-2800).^13 The drug and the DNA in presence of topoisomerase I was incubated for 30 minutes at 37° C. After development of the gels, typically 24-hour exposure was used to obtain autoradiograms outlining the extent of DNA fragmentation. Topoisomerase I-mediated DNA cleavage values are reported as REC, Relative Effective Concentration, i.e. concentrations relative to 2,3-dimethoxy-8,9-methylenedioxybenzo[i]phenanthridine, whose value is arbitrarily assumed as 1.0, that are able to produce the same cleavage on the plasmid DNA in the presence of human topoisomerase I. Relative potency was based upon the relative amount of drug needed to induce approximately 10% DNA fragmentation. Assays were performed under the direction of Dr. L. F. Liu, Department of Pharmacology, The University of Medicine and Dentistry of New Jersey, Robert Wood Johnson Medical School, Piscataway, N.J. Data from Test A for representative compounds of the invention is shown in Table 1.

[1] = test system: human lymphoblast RPMI 8402; experiment: MTT-microtiter plate tetrazolinium cytotoxicity assay, RPMI 8402; assay type: cell-based; settings: continuous exposure 3-4 days
Procedure: (§1) Test B. Inhibition of Cell Growth: MTT-microtiter Plate Tetrazolinium Cytotoxicity Assay (RPMI 8402, CPT-K5, U937, U937/CR Cells)
(§2) The cytotoxicity was determined using the MTT-microtiter plate tetrazolinium cytotoxicity assay (MTA) (See Chen A. Y. et al. Cancer Res. 1993, 53, 1332; Mosmann, T. J., J. Immunol. Methods 1983, 65, 55; and Carmichael, J. et al. Cancer Res. 1987, 47, 936). The human lymphoblast RPMI 8402 and its camptothecin-resistant variant cell line, CPT-K5 were provided by Dr. Toshiwo Andoh (Anchi Cancer Research Institute, Nagoya, Japan) (see Andoh, T.; Okada, K. “Drug resistance mechanisms of topoisomerase I drugs,” Adv. in Pharmacology 1994, 29B, 93). Human U-937 myeloid leukemia cells and U-937/CR cells were described by Rubin et al., J. Biol. Chem., 269, 2433-2439 (1994). The cytotoxicity assay was performed by using 96-well microtiter plates using 2000 cells/well, in […] of growth medium. Cells were grown in suspension at 37° C. in 5% CO2 and maintained by regular passage in RPMI medium supplemented with 10% heat-inactivated fetal bovine serum, L-glutamine (2 mM), penicillin (100U/mL), and streptomycin (0.1 mg/mL). For determination of IC50, cells were exposed continuously for 3-4 days to varying concentrations of drug, and MTT assays were performed at the end of the fourth day. […] All assays were performed at least twice in 6 replicate wells. All assays were performed under the direction of Dr. L. F. Liu, Department of Pharmacology, The University of Medicine and Dentistry of New Jersey, Robert Wood Johnson Medical School, Piscataway, N.J. Representative data is shown in Tables 2 and 3.

[2] = test system: CPT-K5 (camptothecin-resistant variant of RPMI 8402); experiment: MTT-microtiter plate tetrazolinium cytotoxicity assay, CPT-K5; assay type: cell-based; settings: Homo sapiens, continuous exposure 3-4 days
Procedure: as §1, §2

[3] = test system: Human U-937 myeloid leukemia cells; experiment: MTT-microtiter plate tetrazolinium cytotoxicity assay, U937; assay type: cell-based; settings: continuous exposure 3-4 days
Procedure: as §1, §2

U-937/CR cells = experiment: MTT-microtiter plate tetrazolinium cytotoxicity assay, U937/CR; assay type: cell-based; settings: Homo sapiens, continuous exposure 3-4 days
Procedure: as §1, §2

[4] = Homo sapiens, KB 3-1, continuous exposure 3-4 days
[5] = Homo sapiens, KB-V1, continuous exposure 3-4 days
[6] = Homo sapiens, HCT-116, continuous exposure 3-4 days
[7] = Homo sapiens, ZR-75-1, continuous exposure 3-4 days

Row | Structure (SMILES) | IC50 (KB3-1 (oral); continuous exposure 3-4 days) [nM] | IC50 (KBV-1 (mdr-1); continuous exposure 3-4 days) [nM] | IC50 (KBH1.0 + V (H033342r.)) [nM] | IC50 (HELA (cervical)) [nM] | IC50 (HCT116 (colon); continuous exposure 3-4 days) [nM] | IC50 (ZR-75-1 (breast); continuous exposure 3-4 days) [nM] | Topoisomerase I-mediated DNA cleavage (REC, Relative Effective Concentration) (human topoisomerase I) | IC50 (KB3-1 (oral); [4]) [nM] | IC50 (KBV-1 (mdr-1); [5]) [nM] | IC50 (HELA (cervical); Homo sapiens, HeLa) [nM] | IC50 (HCT116 (colon); [6]) [nM] | IC50 (ZR-75-1 (breast); [7]) [nM] | IC50 [1] [nM] | IC50 [2] [nM] | IC50 [3] [nM] | IC50 (U-937/CR cells) [nM] | melting point [°C]
1 | CC[C@@]1(O)C(=O)OCc2c1cc1n(c2=O)Cc2cc3ccccc3nc2-1 [CPT] | 6 | 6 | 7 | 4 | 3 | 4 | – | – | – | – | – | – | – | – | – | – | –
2 | COc1cc2ccc3c4ccccc4nnc3c2cc1OC [Compound 6, 2,3-Dimethoxy-dibenzo[c,h]cinnoline] | – | – | 5000 | – | – | – | 5 | 6000 | 4000 | 6000 | 3200 | 4000 | 3000 | 10000 | 3000 | 3000 | –
3 | COc1cc2ccc3c4cc5c(cc4nnc3c2cc1OC)OCO5 [Compound 14, 2,3-Dimethoxy-8,9-methylenedioxy-dibenzo[c,h]cinnoline] | – | – | 60 | – | – | – | 0.01 | 70 | 80 | 50 | 35 | 40 | 60 | 6000 | 60 | 3000 | –
4 | COc1cc2ccc3c4cc(OC)c(OC)cc4nnc3c2cc1OC [Compound 19, 2,3,8,9-Tetramethoxy-dibenzo[c,h]cinnoline] | – | – | – | – | – | – | >100 | – | – | – | – | – | 10000 | > 10000 | 10000 | 20000 | –
5 | COc1cc2nnc3c4cc(OC)c(OC)cc4ccc3c2cc1O [Compound 34, 9-Hydroxy-2,3,8-trimethoxydibenzo[c,h]cinnoline] | – | – | – | – | – | – | – | – | – | – | – | – | > 100000 | > 100000 | > 100000 | > 100000 | –
6 | COc1cc2ccc3c4cc(OCc5ccccc5)c(OC)cc4nnc3c2cc1OC [Compound 42, 9-Benzyloxy-2,3,8-trimethoxydibenzo[c,h]cinnoline] | – | – | – | – | – | – | – | – | – | – | – | – | 38000 | 61000 | > 100000 | 40000 | 244 to 246
7 | COc1ccc2c(ccc3c4cc5c(cc4nnc23)OCO5)c1 [Compound 43, 2-Methoxy-8,9-methylenedioxydibenzo[c,h]cinnoline] | – | – | – | – | – | – | – | – | – | – | – | – | > 100000 | 52000 | 38000 | 30000 | 258 to 260
8 | COc1ccc2ccc3c4cc5c(cc4nnc3c2c1)OCO5 [Compound 44, 3-Methoxy-8,9-methylenedioxydibenzo[c,h]cinnoline] | – | – | – | – | – | – | – | – | – | – | – | – | 500 | 1300 | 43000 | 900 | 259 to 261
9 | COc1ccc2c(c1)nnc1c3cc(OC)c(OC)cc3ccc21 [Compound 60, 2,3,8-Trimethoxydibenzo[c,h]cinnoline] | – | – | – | – | – | – | 2 | – | – | – | – | – | 2000 | 4000 | 1900 | 2500 | 244 to 246
10 | COc1ccc2nnc3c4cc(OC)c(OC)cc4ccc3c2c1 [Compound 61, 2,3,9-Trimethoxydibenzo[c,h]cinnoline] | – | – | – | – | – | – | 10 | – | – | – | – | – | 4000 | 31000 | 3000 | 6000 | 215 to 217
11 | CCOc1ccc(-c2nc3ccc(-c4nc5ccc(N6CCN(C)CC6)cc5[nH]4)cc3[nH]2)cc1 [HO33342] | 250 | 3000 | > 10000 | 600 | 220 | 60 | – | – | – | – | – | – | – | – | – | – | –
12 | CC[C@]1(O)C[C@@H]2CN(CCc3c([nH]c4ccccc34)[C@@](C(=O)OC)(c3cc4c(cc3OC)N(C)[C@H]3[C@@](O)(C(=O)OC)[C@H](OC(C)=O)[C@]5(CC)C=CCN6CC[C@]43[C@@H]65)C2)C1 [VBS, Vinblastine] | – | – | 2.2 | – | – | – | – | 3 | 400 | 2 | 3 | 3 | – | – | – | – | –

Source: patent publication US6740650B2, “Heterocyclic cytotoxic agents” (Rutgers, The State University of New Jersey, priority 2002, dated 2004)
